# According to patent US8541428B2, “Heterocyclic derivatives, pharmaceutical compositions and methods of use thereof” (Technion Research and Development Foundation Ltd., priority 2006, dated 2013):
# Columns and labels:
# [1] = modulation of PBR composition, seizures; cited from earlier work
# C6 glioma cell line [2] = experiment: Apoptotic levels in C6 glioma cell line (control and IBP knockdown); type: cell-based, rat; conditions: for increase of apoptotic levels: control cells; for apoptotic effects in IBP knockdown cell line: IBP knockdown cells, FGIN-1-27 10^-5M, ErPC 10^-4M
# Description: Cell death, including apoptosis. The Cell Death Detection ELISA^PLUS kit of Roche Molecular Biochemicals (Mannheim, Germany) was used to determine the effects on apoptosis by the new PBR ligands, in particular the one of the present description, according to methods described previously [Veenman L et al. 2005; Levin E et al. 2005]. Also, the Trypan blue method was applied in order to determine the cell viability after application of the new PBR ligands, according to methods described previously [Veenman L et al. 2005; Levin E et al. 2005]. Cell death including apoptosis of neural cells is induced by glutamate and Abeta, according to methods described previously [Michal Gaitner, M. Sc. thesis, 2004].
# C6 glioma cell line [3] = experiment: Mitochondrial membrane potential decrease in C6 glioma cell line (control and IBP knockdown); type: cell-based, rat; conditions: 10^-4M
# Procedure: Mitochondrial membrane potential and mitochondrial volume measurement. To see whether the new PBR ligand is able to prevent opening of the mitochondrial permeability transition pore to prevent apoptosis changes in the mitochondrial volume and potential are measured, as described previously [Maaser K, Br J Cancer 2001;85:1771-1780].
# [4] = target: peripheral-type benzodiazepine receptor (PBR) (Homo sapiens, UniProt P30536); experiment: PBR binding assay, [3H]PK 11195 radio-assay (competition with radioactive standard ligand); conditions: for binding to PBR (in words): [3H]PK 11195 radio-assay
# Procedure: Briefly, the assay utilizes radioactive standard ligand [^3H] PK 11195 (1-(2-chlorophenyl)-N-methyl-N-(1-methyl-propyl)-3-isoquinolinecarboxamide), and measures the ability of the compounds of the invention to compete with standard ligand in binding to PBR. Total radioactive binding was determined by measuring the radioactivity of the radioactive ligand-receptor complex, obtained in the reaction of radioactive standard with the PBR. Radioactive standard and the examined ligand were added to the PBR and after some incubation time the radioactivity of the resulting ligand-receptor complexes was measured with the help of […]. This radioactivity indicates the binding of the radioactive standard to PBR. […] For an easier interpretation of our results, the binding was expressed in percentage of radioactive ligand binding. The lower the number, the better the binding of the examined ligand to PBR. Western blot analysis can be used to see which components of the PBR-complex may be important for the efficacy of the new PBR ligands, according to methods described previously [Levin E et al. 2005; Kuznetsov V et al. 2005; Weisinger G et al. Biochemistiy 2004].
# PBR-complex = PBR-complex (Homo sapiens, UniProt P30536); conditions: displacement of [3H]Ro5 4864; cited from earlier work
# PBR-complex, sequence (P30536 whole entry, one chain of several): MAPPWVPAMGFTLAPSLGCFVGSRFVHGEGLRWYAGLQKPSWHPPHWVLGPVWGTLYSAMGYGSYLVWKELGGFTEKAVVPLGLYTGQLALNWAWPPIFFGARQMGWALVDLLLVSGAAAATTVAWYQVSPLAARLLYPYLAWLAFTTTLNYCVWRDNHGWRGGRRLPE
# peripheral-type benzodiazepine receptor (PBR), sequence (P30536 whole entry, species assumed): as the sequence (P30536 whole entry, one chain of several) above
smiles,measurement,setting,value
"CCC(C)N(C)C(=O)c1cc2ccccc2c(-c2ccccc2Cl)n1 (centres unmarked) [PK 11195, 1-(2-chlorophenyl)-N-methyl-N-(1-methyl-propyl)-3-isoquinolinecarboxamide]",effect on consequences of kainic acid injections,[1],prevented the effects of kainic acid injections
CCCCCCCC/C=C\CCCCCCCCCCCCOP(=O)([O-])OCC[N+](C)(C)C [ErPC],increase of apoptotic levels,C6 glioma cell line [2]; 10^-4M,7-8 fold
same,apoptotic effects in IBP knockdown cell line,C6 glioma cell line [2],completely abolished
same,effects on mitochondrial potential in IBP knockdown cell line,C6 glioma cell line [3]; IBP knockdown cell line (as 3.7),completely abolished
same,enhancement of mitochondrial membrane potential decrease,C6 glioma cell line [3]; control cells vs vehicle treated control cells,6 fold
"CC(C)N(C(=O)Cc1nc(-c2ccccc2)nc2ccccc12)C(C)C [Compound 12c, N,N-Diisopropyl-2-(2-phenyl-quinazolin-4-yl)-acetamide]",binding to PBR (in words),[4],good binding properties
"CCN(CC)C(=O)Cc1nc(-c2ccccc2)nc2ccccc12 [Compound 12b, N,N-Diethyl-2-(2-phenyl-quinazolin-4-yl)-acetamide]",radioactive standard remained bound to PBR (percentage of radioactive ligand binding),"[4]; [3H]PK 11195, the lower the number, the better the binding",14%
same,binding to PBR (in words),[4],good binding properties
CCCCCCN(CCCCCC)C(=O)Cc1c(-c2ccc(F)cc2)[nH]c2ccccc12 [FGIN-1-27],Ki,PBR-complex,4.4 ± 0.1 nM
same,increase of apoptotic levels,C6 glioma cell line [2]; 10^-5M,2 fold
same,apoptotic effects in IBP knockdown cell line,C6 glioma cell line [2],completely abolished
"CN(C)C(=O)Oc1nc(-c2ccccc2)nc2ccccc12 [Compound 9a, Dimethyl-carbamic acid 2-phenyl-quinazolin-4-yl ester]",binding to PBR (in words),[4],good binding properties
"CC(C)N(C(=O)n1c(-c2ccccc2)nc2ccccc2c1=O)C(C)C [Compound 10b, 4-Oxo-2-phenyl-4H-quinazoline-3-carboxylic acid diisopropylamide]",binding to PBR (in words),[4],good binding properties
"CCN(CC)C(=O)C(C)(C)c1nc2ccccc2nc1-c1ccccc1 [Compound 5, N,N-Diethyl-2-(3-phenyl-quinoxalin-2-yl)-isobutyramide]",binding to PBR (in words),[4],best binding
